Assay results from patent US8097652B2, “AMPA receptor potentiators” (Eli Lilly and Company, priority 2006, dated 2012).

Molecular target: T1, human iGluR4 (Homo sapiens, UniProt P48058)
T1 construct: expressed in transfected cells
Experiment: Whole-cell voltage clamp electrophysiology of AMPA receptor potentiation in HEK293 cells expressing human iGluR4
Assay type: cell-based
Settings: HEK293 cells stably expressing human iGluR4; voltage-clamped at −60 mV; 1 mM glutamate; fit to Hill equation; read-out: activity (EC50 value, potency of potentiation of the current evoked by glutamate)
Source text: HEK293 cells stably expressing human iGluR4 (obtained as described in European Patent Application Publication No. EP-A1-0583917) are used in the electrophysiological characterization of AMPA receptor potentiators. The extracellular recording solution contains (in mM): 140 NaCl, 5 KCl, 10 HEPES, 1 MgCl2, 2 CaCl2, 10 glucose, pH=7.4 with NaOH, 295 mOsm kg-1. The intracellular recording solution contains (in mM): 140 CsCl, 1 MgCl2, 10 HEPES, (N-[2-hydroxyethyl]piperazine-N1-[2-ethanesulfonic acid]) 10 EGTA (ethylene-bis(oxyethylene-nitrilo)tetraacetic acid), pH=7.2 with CsOH, 295 mOsm kg-1. With these solutions, recording pipettes have a resistance of 2-3 MΩ. […] Responses to 1 mM glutamate are then determined in the presence of test compound. […]
In order to determine the potency of the test compound, the concentration of the test compound, both in the bathing solution and co-applied with glutamate, is increased in half log units until the maximum effect is seen. […] Reversibility of test compound activity is determined by assessing control glutamate 1 mM responses. Once the control responses to the glutamate challenge are re-established, the potentiation of these responses by 100 μM cyclothiazide is determined by its inclusion in both the bathing solution and the glutamate-containing solution. In this manner, the efficacy of the test compound relative to that of cyclothiazide can be determined. […]

T1 sequence (P48058 22-902 limits assumed): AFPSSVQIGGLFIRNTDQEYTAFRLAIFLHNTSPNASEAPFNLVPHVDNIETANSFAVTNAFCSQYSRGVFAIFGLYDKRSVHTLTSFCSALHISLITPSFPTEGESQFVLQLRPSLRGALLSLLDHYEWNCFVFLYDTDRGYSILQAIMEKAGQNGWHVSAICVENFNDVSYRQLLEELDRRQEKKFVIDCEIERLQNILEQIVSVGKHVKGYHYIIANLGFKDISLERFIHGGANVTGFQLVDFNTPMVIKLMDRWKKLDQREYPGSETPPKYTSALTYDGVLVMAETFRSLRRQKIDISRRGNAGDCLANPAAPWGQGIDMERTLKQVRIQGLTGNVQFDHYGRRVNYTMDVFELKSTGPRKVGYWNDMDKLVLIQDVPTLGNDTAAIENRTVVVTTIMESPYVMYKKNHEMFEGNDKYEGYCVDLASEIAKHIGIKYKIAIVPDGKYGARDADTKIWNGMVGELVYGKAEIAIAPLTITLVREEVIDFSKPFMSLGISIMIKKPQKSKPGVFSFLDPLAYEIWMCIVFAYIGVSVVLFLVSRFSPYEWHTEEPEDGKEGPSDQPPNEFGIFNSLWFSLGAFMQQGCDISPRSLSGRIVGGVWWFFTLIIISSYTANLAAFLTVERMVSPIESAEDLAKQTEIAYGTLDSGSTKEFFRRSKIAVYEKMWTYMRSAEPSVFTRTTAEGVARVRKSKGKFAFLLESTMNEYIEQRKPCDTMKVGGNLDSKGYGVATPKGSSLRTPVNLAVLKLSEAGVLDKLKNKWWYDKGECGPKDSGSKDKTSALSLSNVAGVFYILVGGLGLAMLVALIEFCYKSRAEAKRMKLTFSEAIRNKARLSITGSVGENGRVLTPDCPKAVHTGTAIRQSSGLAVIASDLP

- EC50: 188 ± 15.3 nM
SMILES: CC(C)S(=O)(=O)NC[C@H](C)c1ccc(-c2ccc(C(=O)O)cc2C#N)cc1 [Example 1, 1-(R)-2-Cyano-4′-[1-methyl-2-(propane-2-sulfonylamino)-ethyl]-biphenyl-4-carboxylic acid]
